Source: paper PMC2639596, “Antimicrobial peptides effectively kill a broad spectrum of Listeria monocytogenes and Staphylococcus aureus strains independently of origin, sub-type, or virulence factor expression” (BMC Microbiology, 2008)
Where two headings read alike, the source gives them in different places. Bridge positions count the residues as written; N and C are the ends. Ends that are not written are not given here.

What was measured:
[1] = tested on: L. monocytogenes and S. aureus; assay: Minimum bactericidal concentration (MBC), plating from MIC wells; format: cell-based, Listeria monocytogenes, Staphylococcus aureus; conditions: 99.9% reduction of initial inoculum; 10 μl from wells with no visible growth plated on BHI agar
Protocol: The strain collection was tested for sensitivity to protamine, plectasin, novicidin, and novispirin G10 by determining their minimal inhibitory concentration (MIC) using a microbroth dilution method. Colonies from a BHI agar plate incubated overnight were suspended in MHB pH 7.4 to a turbidity of 0.11–0.12 at 546 nm (approx. 1.0 × 10^8 CFU/ml) and diluted in MHB to a concentration of 5.0 × 10^5 CFU/ml. 90 μl of bacterial suspension was incubated with 10 μl of peptide solution in polypropylene 96-well plates (Nunc, 442587) for 18–24 h at 37°C. The peptide solutions were made fresh on the day of assay and diluted two-fold. The range of concentrations assayed were 0.031–32 μg/ml for novicidin, 0.125–128 μg/ml for protamine and novispirin G10, and 0.25–256 μg/ml for plectasin. MIC was the lowest peptide concentration at which visual growth was inhibited. The minimum bactericidal concentration (MBC) values were determined by plating l0 μl samples from wells with no visible growth onto BHI agar plates. MBC was the lowest concentration of each peptide of which 99.9% reduction of the initial inoculum was observed.

Listeria monocytogenes = format: cell-based; conditions: radial diffusion, MHB pH 7.4/1% agarose/0.1% glucose, overnight, 37°C
Protocol: (§1) Experiments were carried out with a collection of 25 Listeria monocytogenes strains (Table 1) and 16 Staphylococcus aureus strains (Table 2) representing different lineages and serotypes (L. monocytogenes), spa types (S. aureus), and origins (food processing environment, food products, and human clinical isolates). Six L. monocytogenes strains were mutants of the EGD strain and were mutated in genes known to be involved in stress tolerance. The S. aureus collection comprised two deletion mutants, strains Sa113/ΔmprF [8] and Sa113/ΔdltA [7], known to be more sensitive to host defense peptides. Two of the S. aureus strains could not immediately be assigned to an existing spa type and we are in the process of acquiring the additional information that is needed to assign a new spa type to them. The strains were obtained from The National Institute of Aquatic Resources and The National Food Institute, Technical University of Denmark, Faculty of Life Sciences, University of Copenhagen, Denmark, Statens Serum Institut, Denmark, University of Würzburg, Germany and Campden Food and Drink Association, United Kingdom. Stock cultures were stored at -80°C in 4% (w/V) glycerol, 0.5% (w/V) glucose, and 2.0% (w/V) skimmed milk powder. The bacteria were grown in Brain Heart Infusion (BHI) broth (Oxoid, CM0225), Tryptone Soy Broth (TSB) (Oxoid, CM129), and cation-adjusted Mueller-Hinton II Broth (MHB) (Becton Dickinson, 212322) adjusted to pH 7.4. To avoid unspecific binding of host defense peptides to plastic ware and agar, all MIC determinations were carried out using polypropylene plastic ware and radial diffusion assays were carried out in MHB supplemented with 1% agarose (Invitrogen, 15510-027) as gelling agent.
(§2) Protamine was purchased from Sigma (P4020-5G). Plectasin, novicidin, and novispirin G10 were supplied by Novozymes A/S. Recombinant HBD-3 was purchased from PeproTech (300-52).
(§3) Each strain was tested in two independent trials.

Staphylococcus aureus = format: cell-based; conditions: radial diffusion, MHB pH 7.4/1% agarose/0.1% glucose, overnight, 37°C
Protocol: as §1, §2, §3

Question: Which “minimum bactericidal concentrations (MBC)” value [1] does the source give for CC[C@H](C)[C@@H]1NC(=O)[C@H](CO)NC(=O)[C@H](CCCCN)NC(=O)[C@@H]2CSSC[C@@H](C(=O)N[C@@H](Cc3ccc(O)cc3)C(=O)O)NC(=O)[C@H](CCCCN)NC(=O)[C@@H]3CSSC[C@H](NC(=O)[C@H](CCC(N)=O)NC(=O)[C@H](CCSC)NC(=O)[C@H](CC(=O)O)NC(=O)[C@H](CC(=O)O)NC(=O)[C@H](CCC(=O)O)NC(=O)[C@H](CC(=O)O)NC(=O)[C@H](Cc4c[nH]c5ccccc45)NC(=O)[C@@H]4CCCN4C(=O)CNC(=O)[C@H](CC(N)=O)NC(=O)[C@@H](NC(=O)CNC(=O)[C@H](Cc4ccccc4)NC(=O)CN)CSSC[C@H](NC(=O)[C@H](Cc4ccc(O)cc4)NC(=O)CNC(=O)CNC(=O)[C@H](CCCCN)NC(=O)[C@H](Cc4ccc(O)cc4)NC(=O)CNC(=O)[C@H](CCCCN)NC1=O)C(=O)N[C@@H](C)C(=O)N[C@@H](CCCCN)C(=O)NCC(=O)NCC(=O)N[C@@H](Cc1ccccc1)C(=O)N[C@@H](C(C)C)C(=O)N3)C(=O)N[C@@H](Cc1c[nH]cn1)C(=O)N[C@@H](CC(N)=O)C(=O)N[C@@H](Cc1c[nH]cn1)C(=O)N2 [plectasin] here?
Answer: The value was “identical to the MICs”.

Question: Which “MIC (MEC)” value (Listeria monocytogenes; strain 4446, first of two values (two independent trials)) does the source give for “GIINTLQKYYCRVRGGRCAVLSCLPKEEQIGKCSTRGRKCCRRKK (disulfide 11-40, 18-33, 23-41 (inferred)) [HBD-3, human β-defensin 3]” here?
Answer: The value was 16/16 μg/ml.

Question: What about the “MIC (MEC)” value (Listeria monocytogenes; strain 4446, second of two values (two independent trials)) of the same compound?
Answer: The value was 16/16 μg/ml.

Question: And the “MIC (MEC)” value (Listeria monocytogenes; strain 7418, first of two values (two independent trials))?
Answer: The value was 4 µg/mL.

Question: And the “MIC (MEC)” value (Listeria monocytogenes; strain 7418, second of two values (two independent trials))?
Answer: Its value is 8 µg/mL.

Question: What about the “MIC (MEC)” value (Listeria monocytogenes; strain EGD, first of two values (two independent trials)) of the same compound?
Answer: Its value is 16/16 μg/ml.

Question: And the “MIC (MEC)” value (Listeria monocytogenes; strain EGD, second of two values (two independent trials))?
Answer: Its value is 16/16 μg/ml.

Question: And the “MIC (MEC)” value (Listeria monocytogenes; strain La22, first of two values (two independent trials))?
Answer: The value was 16/16 μg/ml.

Question: What about the “MIC (MEC)” value (Listeria monocytogenes; strain La22, second of two values (two independent trials)) of the same compound?
Answer: Its value is 16/16 μg/ml.

Question: What about the “MIC (MEC)” value (Listeria monocytogenes; strain La111, first of two values (two independent trials)) of the same compound?
Answer: The value was 8 µg/mL.

Question: What about the “MIC (MEC)” value (Listeria monocytogenes; strain La111, second of two values (two independent trials)) of the same compound?
Answer: Its value is 16 µg/mL.

Question: What about the “MIC (MEC)” value (Listeria monocytogenes; strain N53-1, first of two values (two independent trials)) of the same compound?
Answer: The value was 16 µg/mL.

Question: What about the “MIC (MEC)” value (Listeria monocytogenes; strain N53-1, second of two values (two independent trials)) of the same compound?
Answer: The value was 32 µg/mL.

Question: And the “MIC (MEC)” value (Listeria monocytogenes; strain Scott A, first of two values (two independent trials))?
Answer: The value was 8/8 μg/ml.

Question: And the “MIC (MEC)” value (Listeria monocytogenes; strain Scott A, second of two values (two independent trials))?
Answer: Its value is 8/8 μg/ml.

Question: What about the “MIC (MEC)” value (Staphylococcus aureus; strain 796, first of two values (two independent trials)) of the same compound?
Answer: Its value is 64/64 μg/ml.

Question: And the “MIC (MEC)” value (Staphylococcus aureus; strain 796, second of two values (two independent trials))?
Answer: Its value is 64/64 μg/ml.

Question: And the “MIC (MEC)” value (Staphylococcus aureus; strain 2148-jvi, first of two values (two independent trials))?
Answer: The value was 32/32 μg/ml.

Question: And the “MIC (MEC)” value (Staphylococcus aureus; strain 2148-jvi, second of two values (two independent trials))?
Answer: The value was 32/32 μg/ml.

Question: And the “MIC (MEC)” value (Staphylococcus aureus; strain 8325-4, first of two values (two independent trials))?
Answer: The value was 32/32 μg/ml.

Question: And the “MIC (MEC)” value (Staphylococcus aureus; strain 8325-4, second of two values (two independent trials))?
Answer: Its value is 32/32 μg/ml.

Question: And the “MIC (MEC)” value (Staphylococcus aureus; strain 14943, first of two values (two independent trials))?
Answer: Its value is 32 µg/mL.

Question: And the “MIC (MEC)” value (Staphylococcus aureus; strain 14943, second of two values (two independent trials))?
Answer: The value was 64 µg/mL.

Question: What about the “MIC (MEC)” value (Staphylococcus aureus; strain B31369, first of two values (two independent trials)) of the same compound?
Answer: The value was 64/64 μg/ml.

Question: What about the “MIC (MEC)” value (Staphylococcus aureus; strain B31369, second of two values (two independent trials)) of the same compound?
Answer: Its value is 64/64 μg/ml.

Question: And the “MIC (MEC)” value (Staphylococcus aureus; strain K3-B2, first of two values (two independent trials))?
Answer: Its value is 32 µg/mL.

Question: What about the “MIC (MEC)” value (Staphylococcus aureus; strain K3-B2, second of two values (two independent trials)) of the same compound?
Answer: Its value is 64 µg/mL.

Question: And the “MIC (MEC)” value (Staphylococcus aureus; strain KES 626, first of two values (two independent trials))?
Answer: The value was 32 µg/mL.

Question: And the “MIC (MEC)” value (Staphylococcus aureus; strain KES 626, second of two values (two independent trials))?
Answer: Its value is 64 µg/mL.
